Results from ChEMBL document CHEMBL2073961, “Reduced hepatic uptake and intestinal excretion of organic cations in mice with a targeted disruption of the organic cation transporter 1 (Oct1 [Slc22a1]) gene” (Mol Cell Biol, 2001).

Molecular target: T1, Solute carrier family 22 member 1 (Mus musculus, UniProt O08966)
T1 sequence (O08966 whole entry): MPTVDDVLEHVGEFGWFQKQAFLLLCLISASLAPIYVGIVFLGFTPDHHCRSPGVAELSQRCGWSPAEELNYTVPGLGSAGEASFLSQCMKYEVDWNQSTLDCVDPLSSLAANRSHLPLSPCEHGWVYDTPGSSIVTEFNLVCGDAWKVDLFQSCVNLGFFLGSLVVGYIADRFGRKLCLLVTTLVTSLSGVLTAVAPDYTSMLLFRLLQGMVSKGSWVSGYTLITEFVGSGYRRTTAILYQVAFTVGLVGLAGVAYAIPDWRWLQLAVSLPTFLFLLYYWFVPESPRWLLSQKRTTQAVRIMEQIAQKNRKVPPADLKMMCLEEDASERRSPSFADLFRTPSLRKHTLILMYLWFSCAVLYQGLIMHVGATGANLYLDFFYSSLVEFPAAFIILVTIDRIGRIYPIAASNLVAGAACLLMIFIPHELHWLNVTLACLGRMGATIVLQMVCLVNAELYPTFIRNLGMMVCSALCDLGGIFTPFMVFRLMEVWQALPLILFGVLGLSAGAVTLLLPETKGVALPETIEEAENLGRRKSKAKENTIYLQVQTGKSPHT
Experiment: TP_TRANSPORTER: decrease in liver concentration in Oct1 -/- mouse
Type: functional, organism-based
Conditions: in vivo

Activity	SMILES
substrate [+]	N=C(N)NCc1cccc(I)c1 [IOBENGUANE]
substrate [+]	CC[N+](CC)(CC)CC [TETRYLAMMONIUM]

SMILES	Activity
C[n+]1ccc(-c2ccccc2)cc1	substrate [+]
